We go through 26 compounds from article PMC8665103 (Journal of medicinal chemistry, 2021).

The format of series [1] is physicochemical. The conditions noted are these: for Colloid radius ±SD / CAC (critical aggregation concentration): DLS; for CAC (critical aggregation concentration): 50 mM KPi pH 7.0, 1% DMSO.
In series [2] the target is T1, MDH (Sus scrofa, UniProt P00346).
T1 sequence (P00346 25-338): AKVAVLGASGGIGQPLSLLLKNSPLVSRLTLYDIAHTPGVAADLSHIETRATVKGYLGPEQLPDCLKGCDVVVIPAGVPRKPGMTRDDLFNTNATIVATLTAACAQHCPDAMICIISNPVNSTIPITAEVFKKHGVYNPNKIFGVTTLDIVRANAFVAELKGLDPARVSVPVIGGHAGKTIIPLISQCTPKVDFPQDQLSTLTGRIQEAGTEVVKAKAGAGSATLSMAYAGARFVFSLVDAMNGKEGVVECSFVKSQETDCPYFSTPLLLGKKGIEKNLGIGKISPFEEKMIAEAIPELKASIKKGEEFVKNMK
The experiment in a line: Colloid centrifugation followed by MDH inhibition of supernatant. It is filed as biochemical, porcine. The conditions noted are these: 14,000 rpm, 1 h, 4 °C; supernatant tested.

The target in series [3] is T2, MDH (malate dehydrogenase, from porcine heart) (Sus scrofa, UniProt P00346).
T2 sequence (P00346 25-338): T1 sequence (P00346 25-338)
The experiment in a line: MDH inhibition counter screen with or without 0.01% Triton X-100. It is filed as biochemical. The conditions noted are these: for Effect of 0.01% Triton X-100 detergent on MDH inhibition/activity: addition of 0.01% Triton X-100; for Hill slope of MDH inhibition: in the absence of detergent. (In general: A counterscreen serves to expose hits that act by an unwanted route or on another target.)

In series [4] the target is 3CL-Pro (Severe acute respiratory syndrome coronavirus 2, UniProt P0DTD1). As to the kind of experiment: 3CL-Pro kinetics inhibition assay in the presence of 0.05% Tween-20. The conditions noted are these: 0.05% Tween-20 versus literature IC50. It is filed as biochemical, SARS-CoV-2.
Series [5] deals with AmpC β-lactamase (Escherichia coli, UniProt P00811). The experiment in a line: AmpC β-lactamase counter screen with or without 0.01% Triton X-100. It is filed as biochemical.
Sequence of AmpC β-lactamase (P00811 20-377): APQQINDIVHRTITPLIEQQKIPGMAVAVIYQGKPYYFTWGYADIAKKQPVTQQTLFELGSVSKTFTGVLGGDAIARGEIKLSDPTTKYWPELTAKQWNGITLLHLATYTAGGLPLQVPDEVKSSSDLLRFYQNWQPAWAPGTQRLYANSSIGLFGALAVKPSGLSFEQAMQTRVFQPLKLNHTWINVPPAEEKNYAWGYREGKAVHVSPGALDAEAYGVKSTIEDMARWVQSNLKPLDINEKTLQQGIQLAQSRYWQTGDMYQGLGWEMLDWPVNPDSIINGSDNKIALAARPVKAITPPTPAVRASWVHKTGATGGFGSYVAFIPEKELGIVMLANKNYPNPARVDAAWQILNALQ

Read-outs that look alike come from different tables or passages of the source.

On to `Cc1cc(O)c2c(=O)c3c(O)cc(O)c4c5c(O)cc(O)c6c(=O)c7c(O)cc(C)c8c1c2c(c34)c(c78)c65` [Hypericin], for which the “Colloid radius ±SD” value in series [1] (literature hits) amounted to 143 ± 6 nm.
As for `COc1ccc(-c2ccc3cc(C(=O)O)ccc3c2)cc1C12CC3CC(CC(C3)C1)C2` [Adapalene], the “Colloid radius ±SD” value in series [1] (drugs from repurposing library) is on record as 422 ± 65 nm.
As to `Cc1cc(-c2ccc(/N=N/c3ccc4c(S(=O)(=O)[O-])cc(S(=O)(=O)[O-])c(N)c4c3O)c(C)c2)ccc1/N=N/c1ccc2c(S(=O)(=O)[O-])cc(S(=O)(=O)[O-])c(N)c2c1O.[Na+].[Na+].[Na+].[Na+]` [Evans Blue], in series [1], the “Particles by DLS” value was “did not show particles by DLS”. In series [2], the “MDH enzyme activity after centrifugation of compound” value was “enzyme activity was restored after centrifugation”.
Turning to `CC(C)(C)[C@H]1CC[C@H](CC2=C(O)C(=O)c3ccccc3C2=O)CC1` [Buparvaquone], the “Colloid radius ±SD” value in series [1] (drugs from repurposing library) is 186 ± 15 nm.
On the same count and under the same terms, with `Cc1c(C)c2c(c(C)c1O)CCC(C)(CCCC(C)CCCC(C)CCCC(C)C)O2` (stereo not drawn) [Alpha-Tochopherol] the figure was 466 ± 5.6 nm.
As to `C[C@@H](NCCCc1cccc(C(F)(F)F)c1)c1cccc2ccccc12` [Cinacalcet], the “Colloid radius ±SD” value in series [1] (literature hits) is 77 ± 4 nm.
`COC(=O)C1=C(C)NC(C)=C(C(=O)OC(C)(C)CN(C)CCC(c2ccccc2)c2ccccc2)C1c1cccc([N+](=O)[O-])c1` (stereo not drawn) [Lercanidipine]: in series [3], the “Effect of 0.01% Triton X-100 detergent on MDH inhibition/activity” value is given as “MDH activity is restored” and the “Hill slope of MDH inhibition” value is 2.9. The “Colloid radius ±SD” value in series [1] (literature hits) is 853 ± 147 nm. Moreover, the “Increase in DLS scattering intensity (Cnts/sec) on particle formation” value in series [1] (aqueous buffer) is listed as 10 fold.
On to `Cc1cc(O)c2c(c1)C(=O)c1cc(O)cc(O)c1C2=O` [Emodin], for which the “Colloid radius ±SD” value in series [1] (literature hits) amounted to 58 ± 17 nm.
As to `O=C1CCc2ccc(OCCCCN3CCN(c4cccc(Cl)c4Cl)CC3)cc2N1` [Aripiprazole], in series [1] (literature hits), the “Colloid radius ±SD” value is 222 ± 5. nm.
On the same count and under the same terms, with `O=C1c2c(O)cccc2Cc2cccc(O)c21` [Anthralin] the figure was 1014 ± 53 nm.
Consider tannic acid, for which the “Effect of 0.01% Triton X-100 detergent on MDH inhibition/activity” value in series [3] is on record as “cannot be reversed by detergent”.
Turning to `C/C(=C\c1ccc(C(=O)O)cc1)c1ccc2c(c1)C(C)(C)CCC2(C)C` [TTNPB], the “Colloid radius ±SD” value in series [1] (literature hits) was found to be 72 ± 3 nm.
Take `Cc1c(-c2ccc(O)cc2)n(Cc2ccc(OCCN3CCCCCC3)cc2)c2ccc(O)cc12` [Bazedoxifene]: the “Colloid radius ±SD” value in series [1] (drugs from repurposing library) worked out at 2822 ± 814 nm.
For the compound `COC(=O)C1=C(C)NC(C)=C(C(=O)OCCN2CCN(C(c3ccccc3)c3ccccc3)CC2)C1c1cccc([N+](=O)[O-])c1` (stereo not drawn) [Manidipine], the “Colloid radius ±SD” value in series [1] (literature hits) is 929 ± 75 nm.
On to `Brc1c(Br)c(Br)c2[nH]nnc2c1Br` [TBB], for which, in series [1], the “Particles by DLS” value is reported as “did not show particles by DLS”. Moreover, the “MDH enzyme activity after centrifugation of compound” value in series [2] is “enzyme activity was restored after centrifugation”.
Take `COc1c2ccc(-c3ccccc3)oc-2cc(=O)c1C` [Dracorhodin]: the “Colloid radius ±SD” value in series [1] (drugs from repurposing library) was 101 ± 22 nm.
For `CC(C)=CC[C@@H](O)C1=CC(=O)c2c(O)ccc(O)c2C1=O` [Shikonin], the “Hill slope of MDH inhibition” value in series [3] is reported as 1.3–1.4. In addition, the “Colloid radius ±SD” value in series [1] (literature hits) came to 169 ± 9 nm.
As for `O=c1c(O)c(-c2cc(O)c(O)c(O)c2)oc2cc(O)cc(O)c12` [Myricetin], the “Colloid radius ±SD” value in series [1] (literature hits) is 100 ± 4 nm.
Turning to `Cc1cc2c(C(C)C)c(O)c(O)c(C=O)c2c(O)c1-c1c(C)cc2c(C(C)C)c(O)c(O)c(C=O)c2c1O` [Gossypol], the “Colloid radius ±SD” value in series [1] (literature hits) is recorded as 70 ± 6 nm.
The same measure, in the same setting: with `Clc1ccccc1C(c1ccccc1)(c1ccccc1)n1ccnc1` [Clotrimazole] the figure was 283 ± 15 nm.
Turning to `O=C(O)c1ccc(N2C(=O)/C(=C\c3ccc(-c4ccc([N+](=O)[O-])cc4)o3)C=C2c2ccccc2)cc1` [4E1RCat], in series [1] (literature hits), the “CAC (critical aggregation concentration)” value worked out at 6.6 µM and the “Colloid radius ±SD” value amounted to 102 ± 8 nm. For the same compound, the “Reduction of 3CL-Pro potency in presence of detergent versus literature value” in series [4] is given as “fivefold”.
`c1ccc(-c2ccc(C(c3ccccc3)n3ccnc3)cc2)cc1` (stereo not drawn) [Bifonazole]: in series [1] (drugs from repurposing library), the “Colloid radius ±SD” value is listed as 184 ± 80 nm.
Take `Oc1c(I)cc(Cl)c2cccnc12` [Clioquinol]: in series [1] (literature hits), the “Colloid radius ±SD” value was 1818 ± 177 nm.
Still for that read-out and setting: under `O=C1C=C2CC3(O)COc4c(ccc(O)c4O)C3=C2C=C1O` (stereo not drawn) [Hematein] stands 64 ± 1 nm.
The IC50 is the point on the concentration scale where inhibition reaches its midpoint. Hemin: the “Hill slope of MDH inhibition” value in series [3] is 1.3–1.4. For the same compound, in series [1] (literature hits), the “CAC (critical aggregation concentration)” value is 13 µM and the “Colloid radius ±SD” value is listed as 84 ± 0.9 nm. Moreover, the “Reduction of 3CL-Pro potency in presence of detergent versus literature value” in series [4] was 2.6 fold. Further, in series [5] (at 25 μM hemin), the “AmpC enzyme activity on addition of 0.01% (v/v) Triton X-100” value is reported as “fully restored enzyme activity”. Also, in series [5] (read-out: AmpC IC50, no detergent), the IC50 was 23 µM.
As to `O=C(O)c1cccc(CN2C(=O)/C(=C(\c3ccccc3)c3ccc(Cl)cc3)c3ccccc32)c1` [YLF-466D], the “Colloid radius ±SD” value in series [1] (literature hits) is 40 ± 0.4 nm.
